In patent publication US20130012709A1, “NOVEL INHIBITORS OF STEAROYL-CoA-DESATURASE-1 AND THEIR USES” (CENTRE NATIONAL DE LA RECHERCHE SCIENTIFIQUE, priority 2009, published 2013):
Like-named read-outs stand apart in the source and are kept apart here.

Assays:
[1] = system: C4-2 cells; assay: Human WNT Signaling Pathway PCR Array; type: cell-based; settings: C4-2, 25 μM
Procedure: C4-2 cells treated with the compound tested at 25 μM were analysed for the expression profiles of 84 genes related to Wnt-mediated signal transduction by using Human WNT Signaling Pathway PCR Array according to the manufacturers' recommendations (Tebu-Bio, Le Perray en Yvelines, France). The relative content of cDNA samples was normalized with the endogenous β2M, HPRT1, RPL13 and GAPDH reference genes, and the relative mRNA level was calculated according to the formula 2^−(ΔCt). Values are expressed as the fold change in relative mRNA level following treatment of cells with the tested compound at 25 μM, as compared to control.

[2] = system: β-catenin-Tcf4 complex in LNCaP cells; assay: TCF/LEF-1 reporter (pTOP-FLASH) luciferase assay; type: cell-based, human
Procedure: (§1) The transcriptional activity of the β-catenin-Tcf4 complex was analysed by performing transient transfections with 0.25 μg TCF/LEF-1 reporter (pTOP-FLASH) or control vector (pFOP-FLASH).
(§2) Luciferase activities in cell lysates were normalized relative to the β-galactosidase activity to correct for differences in transfection efficiency.

[3] = system: β-catenin-Tcf4 complex in C4-2 cells; assay: TCF/LEF-1 reporter (pTOP-FLASH) luciferase assay; type: cell-based, human
Procedure: as §1, §2

[4] = system: C4-2 tumor xenografts; assay: Subcutaneous xenograft, curative treatment; type: in vivo, mice
Procedure: (§3) Male athymic nude Mice (Foxn1 nu/nu) (Harlan, Grannat, France) were used at the age of 7 weeks (weight 25-30 g). All procedures were performed in compliance with the European Convention for the Protection of Vertebrate Animals Used for Experimentation (animal house agreement # B-34-172-27, authorization for animal experimentation #34.324). Experiments were done at least twice for each tested condition. Animals were sacrificed before they became compromised. Xenografts were established by subcutaneously injecting 2×10^6 LNCaP cells, 2×10^6 C4-2 cells or 5×10^5 MEFs SV40 in 100 μl of a Matrigel solution. For curative experiments, tumors were allowed to growth until they were measurable with a caliper. In each group, the mice were randomized and given SCD-1 inhibitor at 80 mg/kg in 100 μl of a labrafil-DMA-tween^80 solution (89:10:1) (treated group) or vehicle alone (control group), by daily intra-peritoneal (i.p.) injection 5 days of week. For preventive experiments, the mice were treated daily for 7 days before the day of xenograft. Tumor volume measurements were taken twice to three times a week and calculated according to the formula: length×width×height×0.5236. Data are expressed as the mean tumor volume or as fold of the start point tumor volume. For survival analysis, animals bearing pre-established C4-2 tumors were treated with BZ36 at 80 mg/kg or 160 mg/kg or with vehicle by daily i.p. injection 5 days of week. All mice were monitored for survival until tumor volume had reached 2000 mm^3 or until death. Analysis of survival was conducted by a log-rank test based on the Kaplan-Meier method. At euthanasia, tumors were excised and fixed in 4% formalin for immunohistological analyses.
(§4) Immunohistochemical analysis of SCD-1 expression was performed using high-density Tissue Microarray (TMA) slide (Accumax array) with 39 prostate adenocarcinoma spots from different patients (Gleason scores from 5 to 9) with corresponding normal tissues. Immunohistochemical analysis of pcna expression was performed on […] paraffin-embedded sections of LNCaP, C4-2 of Ras SV40 MEFs tumor xenografts. Briefly, after antigen retrieval, deparaffinized sections were blocked of Fc receptors with PBS containing 5% goat serum and then incubated with corresponding anti-SCD-1 mouse antibody, 1:50 (Abcam, Paris, France) or anti-pcna mouse antibody, 1:50 (Santa Cruz) in PBS-Tween 0.1%, overnight at 4° C. […] Sections were counterstained with Mayer's hematoxylin. […] Sections were mounted in mowiol and analysed rapidly.

[5] = system: LNCaP tumor xenografts; assay: Subcutaneous xenograft, curative treatment; type: in vivo, mice
Procedure: as §3, §4

[6] = system: LNCaP cells; assay: Measurement of de novo fatty acid synthesis; type: cell-based; settings: Homo sapiens
Procedure: (§5) The tested inhibitor was added overnight at a final concentration of 25 μM to subconfluent cultures of cells grown in 6-wells plate in serum and fatty acid-free DMEM media supplemented with 0.2% BSA. Cultures were then labeled in triplicate with 1.0 μCi of [U—^14C]-palmitate or -stearate for 6 h, and total lipids were folch extracted with chloroform/methanol. Labeled lipids were subjected to TLC in hexane/diethyl ether/acetic acid 90:10:1 (V/V), to separate cholesterol ester, triglycerides and phospholipids. Standards were run for each of the lipid classes. After chromatography, labeled lipid classes were quantified by scintillation counting and radioactivity was normalized to DNA content.

[7] = system: C4-2 cells; assay: Measurement of de novo fatty acid synthesis; type: cell-based; settings: Homo sapiens, C4-2, 25 μM
Procedure: as §5

[8] = system: LNCaP cells; assay: Phospho-kinase array and immunoblot; type: cell-based, human
Procedure: (§6) Protein extracts and sodium dodecyl sulfate (SDS)-polyacrylamide gel electrophoresis (PAGE), electrotransfer and immunoblotting were performed as previously described (34). The primary antibodies rabbit anti-AMPK, rabbit anti-phospho AMPK (Thr172), rabbit anti-Akt and rabbit anti-phospho Akt were purchased from Cell signalling Technology (Ozyme, Saint Quentin Yvelines, France). The primary antibody mouse anti-tubulineα was purchased from Lab Vision (Thermo Fisher Scientific, Microm France, Francheville, France). The primary antibodies rabbit anti-p44/p42 MAPK, rabbit anti-phospho p44/p42 MAPK (Thr202/Tyr204), mouse anti-GSK3α/β, and rabbit anti-phospho GSK3α/β were kindly provided by Dr Gilles Freiss. LNCaP and C4-2 cells treated with the tested compound at 25 μM were analyzed for the relative phosphorylation of 46 kinase phosphorylation sites using human phospho-kinase array kit (Proteome Profiler™) according to the manufacturers' recommendations (R&D systems Europe, Lille, France).

[9] = system: C4-2 cells; assay: Phospho-kinase array and immunoblot; type: cell-based, human
Procedure: as §6

[10] = read-out: inhibition of [U-14C]-palmitate incorporation into phospholipids
[11] = read-out: inhibition of [U-14C]-palmitate incorporation into sterol esters
[12] = read-out: inhibition of [U-14C]-palmitate incorporation into triglycerides
[13] = read-out: inhibition of [U-14C]-stearate incorporation into phospholipids
[14] = read-out: inhibition of [U-14C]-stearate incorporation into sterol esters
[15] = read-out: inhibition of [U-14C]-stearate incorporation into triglycerides

COc1ccc(Br)c(C(=O)N2CCN(c3ccc(C(=O)NCCCc4ccccc4)cn3)CC2)c1 [BZ36]
expression of genes in the β-cat pathway (frizzled family, cyclin D1, D2, D3, myc, c-jun, Wnt family members) [1]: decreased expression
activity of a β-cat reporter [2]: decreased activity
activity of a β-cat reporter [3]: decreased activity
mice with tumor volume increased more than 4-fold ([4]; C4-2, 80 mg/kg, 42% of vehicle-treated mice): 12%
xenografted mice with tumor regression ([4]; C4-2, 80 mg/kg, no regression in control mice): 19%
tumor volume and tumor growth rate ([4]; C4-2 xenograft, 80 mg/kg i.p., vs vehicle): significantly reduced
decrease of proliferative tumor cells (PCNA immunostaining) ([4]; C4-2 xenografts, 80 mg/kg, vs control animals): 41%
tumor volume and tumor growth rate ([5]; LNCaP xenograft, 80 mg/kg i.p., vs vehicle): significantly reduced
decrease of proliferative tumor cells (PCNA immunostaining) ([5]; LNCaP xenografts, 80 mg/kg, vs control animals): 50%
mice with tumor volume increased more than 4-fold ([5]; LNCaP, 80 mg/kg, 42% of vehicle-treated mice): 18%
xenografted mice with tumor regression ([5]; LNCaP, 80 mg/kg, no regression in control mice): 27%
inhibition at 25 µM [6, 10]: 58%
inhibition at 25 µM [6, 11]: 39%
inhibition at 25 µM [6, 12]: 27%
inhibition at 25 µM [6, 13]: 81%
inhibition at 25 µM [6, 14]: 77%
inhibition at 25 µM [6, 15]: 78%
inhibition at 25 µM [7, 10]: 41%
inhibition at 25 µM [7, 11]: 33%
inhibition at 25 µM [7, 12]: 24%
inhibition at 25 µM [7, 13]: 49%
inhibition at 25 µM [7, 14]: 70%
inhibition at 25 µM [7, 15]: 19%
phosphorylation of GSK3a/13 [8]: abrogated
phosphorylation of AMPKcc ([8]; 25 μM): increased
Akt phosphorylation (5473/T308) ([8]; 25 μM, vs non-treated cells): decrease
phosphorylation of ERK1/2 ([8]; immunoblot): decreased phosphorylation
phosphorylation of GSK3a/13 ([9]; C4-2): abrogated
phosphorylation of AMPKcc ([9]; C4-2, 25 μM): increased
Akt phosphorylation (5473/T308) ([9]; C4-2, 25 μM, vs non-treated cells): decrease
phosphorylation of ERK1/2 ([9]; C4-2, immunoblot): decreased phosphorylation
phosphorylation of MEK1/2 (S218/5222, S222/S226) ([9]; C4-2, vs control cells): Significant decreases
